Measured values reported in BigSolDB 2.1.

CC(=O)N[C@H](C(=O)O)C(C)C
solubility (mole fraction)
Conditions	283.15 K	288.15 K	293.15 K	298.15 K	303.15 K	308.15 K	313.15 K	318.15 K	323.15 K	328.15 K
in 1,4-dioxane	–	0.0324	0.0363	0.0427	0.0495	0.06	0.0712	0.0805	0.0921	0.109
in 2-butanone	0.00606	0.00748	0.00907	0.0112	0.0141	0.0176	0.021	0.0245	0.0292	–
in acetone	0.0102	0.0133	0.0163	0.0196	0.0238	0.0284	0.0333	0.039	0.0437	–
in acetonitrile	0.00204	0.0026	0.00352	0.00464	0.0055	0.00668	0.00792	0.00909	0.0105	–
in dimethyl carbonate	0.00116	0.00139	0.00169	0.0021	0.00261	0.00331	0.00395	0.00489	0.00611	–
in ethyl acetate	0.00279	0.00342	0.00403	0.00487	0.006	0.00718	0.00847	0.01	0.0119	–
in isobutanol	0.0341	0.0396	0.0465	0.0566	0.0648	0.0777	0.0881	0.101	0.114	–
in isopropanol	0.0401	0.048	0.0558	0.0662	0.0782	0.091	0.104	0.12	0.134	–
in methyl acetate	0.00339	0.00393	0.00485	0.0058	0.00694	0.0082	0.00972	0.0112	0.0128	–
in n-butanol	0.0371	0.0428	0.0506	0.0595	0.0685	0.0786	0.0902	0.104	0.115	–
in n-propanol	0.0449	0.0512	0.06	0.0747	0.0876	0.111	0.13	0.151	0.171	–
in water	0.00557	0.00611	0.0066	0.00748	0.00872	0.01	0.0116	0.0137	0.0159	–
